Experiment in all cases: NCI tumour cell line growth inhibition, 48 h
Experiment [1] deals with DU-145 prostate.
Experiment [2] concerns HCC-2998 colon.
The subject of experiment [3] is HOP-62 NSCLC.
The subject of experiment [4] is NCI-H23 lung.
In experiment [5] the test system is RPMI-8226 leukemia.
In experiment [6] the test system is SNB-75 CNS.
In experiment [7] the test system is SR leukemia.
Experiment [8] concerns BT-549 breast.

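These data come from cells grown in 96-well plates and exposed to compound for 48 hours at five concentrations. The concentration for 50% growth inhibition is given as GI50. TGI: concentration producing complete growth inhibition.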

In the case of `O=C1/C(=C/c2ccc(Cl)cc2)CCC/C1=C\c1ccc(Cl)cc1`, the GI50 is 4.09 µM in experiment [1]; 1.75 µM in experiment [2]; 8.1 µM in experiment [3]; 3.06 µM in experiment [4]; 2.1 µM in experiment [5]; above 100 µM in experiment [6]. Also, the GI50 in experiment [7] is 2.77 µM. The TGI in experiment [1] was above 100 µM; in experiment [2], 3.19 µM; in experiment [3] it was above 100 µM; in experiment [4], above 100 µM; in experiment [5], 6.32 µM; in experiment [6], above 100 µM. The same compound had a TGI in experiment [7] above 100 µM.

Consider `Nc1ccc(-c2cccs2)cc1NC(=O)c1ccc(CCCC(=O)Nc2ccc(C3CC3N)cc2)cc1` (stereo not given), for which the values for the GI50 in experiment [8] and in experiment [6] were 2.69 µM and 1.65 µM, respectively. Also, the TGI was above 100 µM in experiment [8] and 4.27 µM in experiment [6].

For `CC(C)(C)c1ccc(OCCOCCOc2ccc(C(C)(C)C)cc2S(=O)(=O)Nc2ccc([N+](=O)[O-])cc2)c(S(=O)(=O)Nc2ccc([N+](=O)[O-])cc2)c1`, the TGI in experiment [2], in experiment [3], in experiment [4] and in experiment [6] was above 100 µM each time.

On to `CC1(C)NCCC[C@]2(C)[C@H]3CC[C@@H]4[C@H]5[C@H](C(=O)/C=C/c6ccccn6)CC[C@]5(CO)CC[C@@]4(C)[C@]3(C)CC[C@@H]12`, for which the GI50 is 2.27 µM in experiment [8]; 3.56 µM in experiment [1]; 6.23 µM in experiment [3]; 3.33 µM in experiment [4]; 2.16 µM in experiment [5]; 1.81 µM in experiment [7]. The TGI in experiment [8] was 11 µM; in experiment [1], 12.4 µM; in experiment [3], 29.4 µM; in experiment [4], 14 µM; in experiment [5] it was 5.58 µM; in experiment [7], 6.27 µM.

`Clc1ccccc1CNc1c2ccccc2nc2ccccc12`: the GI50 in experiment [8] was 4.17 µM; in experiment [1], 2.45 µM; in experiment [2] it was 1.5 µM; in experiment [3] it was 3.62 µM; in experiment [4], 1.67 µM; in experiment [6], 2.55 µM. Further, in experiment [7], the GI50 was 1.89 µM. The TGI in experiment [8] was 12 µM; in experiment [1], 8.58 µM; in experiment [2], 5.57 µM; in experiment [3] it was 12.8 µM; in experiment [4], 8.9 µM; in experiment [6] it was 9.63 µM. This compound also displayed a TGI in experiment [7] of 6.99 µM.

Take `CCOC(=O)c1cc(-c2ccccc2)[nH]c1N/N=C/c1ccc(Cl)cc1`: the GI50 is 46.8 µM in experiment [8]; above 100 µM in experiment [1]; 54.7 µM in experiment [2]; 87.3 µM in experiment [3]; 79.1 µM in experiment [4]; 29.8 µM in experiment [5]. In addition, in experiment [6], the GI50 was above 100 µM. Also, the TGI in experiment [8], in experiment [1], in experiment [2], in experiment [3], in experiment [4] and in experiment [5] was above 100 µM in each case. This compound also gave a TGI in experiment [6] above 100 µM.

With `C=C(CO)[C@@H]1CC[C@]2(COC3CCCCO3)CC[C@]3(C)[C@H](CC[C@@H]4[C@@]5(C)C=C(C=O)C(=O)C(C)(C)[C@@H]5CC[C@]43C)[C@@H]12` (stereo not given in full), the GI50 in experiment [8] was 0.221 µM; in experiment [1], 0.523 µM; in experiment [2], 0.286 µM; in experiment [3] it was 1.51 µM; in experiment [4], 0.311 µM; in experiment [5], 0.244 µM. For the same compound, the GI50 in experiment [6] is 0.206 µM. Also, the TGI in experiment [8] was found to be 0.619 µM; in experiment [1], 1.72 µM; in experiment [2] it was 0.838 µM; in experiment [3], 3.23 µM; in experiment [4] it was 1.02 µM; in experiment [5], 0.777 µM. In experiment [6], the TGI came out at 0.625 µM.

Regarding `CN(C)CCNc1c2ccccc2nc2oc3ccccc3c12`, the GI50 in experiment [8] was 5.67 µM; in experiment [1], 4.35 µM; in experiment [2], 8.49 µM; in experiment [3] it was 7.97 µM; in experiment [6] it was 12.5 µM. The TGI was 18.4 µM in experiment [8]; 17.9 µM in experiment [1]; 22.3 µM in experiment [2]; 42.6 µM in experiment [3]; 25.8 µM in experiment [6].

`CC(=O)c1c(CO[N+](=O)[O-])n([O-])c2ccccc2[n+]1=O`: the TGI in experiment [8], in experiment [1], in experiment [3], in experiment [4], in experiment [5] and in experiment [6] was above 100 µM each time. Moreover, the TGI in experiment [7] was above 100 µM.

Take `O=C1c2ccccc2-c2c1c1c(O)cccc1n2Cc1ccccn1`: the GI50 was 26.2 µM in experiment [8]; 36.5 µM in experiment [1]; 70.9 µM in experiment [2]; 84.9 µM in experiment [3]; 44.1 µM in experiment [4]; 19.9 µM in experiment [5]. Besides, in experiment [6], the GI50 was above 100 µM. The TGI in experiment [8], in experiment [1], in experiment [2], in experiment [3], in experiment [4] and in experiment [5] was above 100 µM throughout. In experiment [6], this compound returned a TGI above 100 µM.

With `Cc1cn2c(/C=N/N=C(N)N)c(-c3ccccn3)nc2s1`, the GI50 was 7.69 µM in experiment [8]; 10.5 µM in experiment [1]; 10.5 µM in experiment [3]; 6.65 µM in experiment [4]; 7.53 µM in experiment [5]; 7.66 µM in experiment [6]. Moreover, the TGI in experiment [8] was 25.9 µM; in experiment [1], 37.7 µM; in experiment [3], 26.9 µM; in experiment [4] it was 16.7 µM; in experiment [5], above 84.7 µM; in experiment [6] it was 19.3 µM.

Regarding `N#Cc1cc(S(=O)(=O)Nc2nnc(-c3ccccc3)c(-c3ccccc3)n2)c(SCc2ccccc2)cc1Cl`, the GI50 in experiment [8] is 30.9 µM; in experiment [1], 20.1 µM; in experiment [2], above 100 µM; in experiment [3], 28.3 µM; in experiment [4], above 100 µM; in experiment [5] it was 16.4 µM. For the same compound, the GI50 in experiment [7] is 27.5 µM. The TGI in experiment [8] was 89.6 µM; in experiment [1] it was 41.6 µM; in experiment [2], above 100 µM; in experiment [3], 83.5 µM; in experiment [4] it was above 100 µM; in experiment [5], 51.9 µM. Moreover, the TGI in experiment [7] is above 100 µM.

`O=NNc1ccc(Sc2ccc(NN=O)cn2)nc1`: the TGI in experiment [8], in experiment [1], in experiment [2], in experiment [3], in experiment [4] and in experiment [6] was above 100 µM in each case. Besides, the TGI in experiment [7] was above 100 µM.

The values are drawn from PubChem BioAssay (NCI).
